In the supplement of paper PMC8617591:

How the values were obtained:
[1] = tested on: Mycobacterium tuberculosis Erdman (autoluminescent); assay: FIC90 (Loewe) at 90% inhibition (log2); higher = more antagonistic
Experimental: (§1)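 DiaMOND equipotent two-drug combination dose responses against autoluminescent M. tuberculosis Erdman in 8 in vitro models. Read-out is OD600, or luminescence for the intracellular and dormancy models, normalised to untreated wells. Hill-fit Einf, AUC25 and GRinf are potency metrics; FIC50 and FIC90 are Loewe-additivity fractional inhibitory concentrations, given as log2 (negative = synergy). Replicates are averaged.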

[2] = tested on: Mycobacterium tuberculosis Erdman (autoluminescent); assay: FIC50 (Loewe) at 50% inhibition (log2); higher = more antagonistic
Experimental: as §1

[3] = tested on: Mycobacterium tuberculosis Erdman (autoluminescent); assay: Einf, fitted maximum growth inhibition of combination (fraction); higher = stronger maximal inhibition
Experimental: as §1

[4] = tested on: Mycobacterium tuberculosis Erdman (autoluminescent); assay: AUC25, normalised area under dose response up to IC25 (fraction (0-1)); higher = more potent at low dose
Experimental: as §1

[5] = tested on: Mycobacterium tuberculosis Erdman (autoluminescent); assay: GRinf, maximum normalised growth rate inhibition (unitless (-1 to 1)); higher = less effect (negative = killing)
Experimental: as §1

COc1nc2ccc(Br)cc2cc1[C@@H](c1ccccc1)[C@@](O)(CCN(C)C)c1cccc2ccccc12 [bedaquiline] + CC(=O)NC[C@H]1CN(c2ccc(N3CCOCC3)c(F)c2)C(=O)O1 [linezolid]
Settings	AUC25, [4]	Einf, [3]	FIC50, [2]	FIC90, [1]	GRinf, [5]
in vitro model: acidic pH 5.7, time point: constant (~7 days, model-specific)	0.0967	0.859	-0.0767	–	-0.481
in vitro model: acidic pH 5.7, time point: terminal (~4-5 doublings, model-specific)	0.0907	0.973	0.322	0.271	-0.338
in vitro model: intracellular J774, time point: constant = terminal	–	0.779	–	–	0.0692

Settings	AUC25, [4]	Einf, [3]	FIC50, [2]	FIC90, [1]	GRinf, [5]
in vitro model: butyrate, time point: constant (~7 days, model-specific)	0.0836	0.935	0.413	-0.0357	-0.0894
in vitro model: butyrate, time point: terminal (~4-5 doublings, model-specific)	0.0548	0.955	0.268	0.0422	-0.102
in vitro model: cholesterol 0.05 mM, time point: constant (~7 days, model-specific)	0.153	0.803	0.123	–	-0.345
in vitro model: cholesterol 0.05 mM, time point: terminal (~4-5 doublings, model-specific)	0.147	0.945	-0.0301	1.01	-0.326
in vitro model: cholesterol-high 0.2 mM, time point: constant (~7 days, model-specific)	0.12	0.99	-0.127	0.76	-0.87
in vitro model: cholesterol-high 0.2 mM, time point: terminal (~4-5 doublings, model-specific)	0.121	1	-0.334	0.414	-0.851
in vitro model: dormancy (butyrate + nitrate, low O2), time point: constant (~7 days, model-specific)	0.0774	0.933	0.344	0.554	0.113
in vitro model: dormancy (butyrate + nitrate, low O2), time point: terminal (~4-5 doublings, model-specific)	0.0484	0.984	0.546	0.263	-0.0845
in vitro model: standard 7H9 glycerol, time point: constant = terminal	0.0721	0.961	0.142	0.0991	-0.106
in vitro model: valerate, time point: constant (~7 days, model-specific)	0.104	0.901	1.02	1.36	-0.0681
in vitro model: valerate, time point: terminal (~4-5 doublings, model-specific)	0.067	0.947	0.743	0.916	-0.0615

COc1nc2ccc(Br)cc2cc1[C@@H](c1ccccc1)[C@@](O)(CCN(C)C)c1cccc2ccccc12 [bedaquiline] + CC(C)/N=c1\cc2n(-c3ccc(Cl)cc3)c3ccccc3nc-2cc1Nc1ccc(Cl)cc1 [clofazimine]
Settings	AUC25, [4]	Einf, [3]	FIC50, [2]	FIC90, [1]	GRinf, [5]
in vitro model: acidic pH 5.7, time point: constant (~7 days, model-specific)	0.105	0.853	0.214	–	-0.265
in vitro model: acidic pH 5.7, time point: terminal (~4-5 doublings, model-specific)	0.102	0.986	-0.0261	0.282	-0.322
in vitro model: intracellular J774, time point: constant = terminal	–	0.986	–	-0.499	-0.483

Settings	AUC25, [4]	Einf, [3]	FIC50, [2]	FIC90, [1]	GRinf, [5]
in vitro model: butyrate, time point: constant (~7 days, model-specific)	0.0673	0.946	-0.498	-0.794	-0.0975
in vitro model: butyrate, time point: terminal (~4-5 doublings, model-specific)	0.0515	0.979	-0.353	-0.858	-0.101
in vitro model: cholesterol 0.05 mM, time point: constant (~7 days, model-specific)	0.0912	0.741	-0.628	–	-0.147
in vitro model: cholesterol 0.05 mM, time point: terminal (~4-5 doublings, model-specific)	0.0989	0.945	0.39	0.028	-0.224
in vitro model: cholesterol-high 0.2 mM, time point: constant (~7 days, model-specific)	0.0661	0.946	-0.437	-0.58	-0.413
in vitro model: cholesterol-high 0.2 mM, time point: terminal (~4-5 doublings, model-specific)	0.0725	0.997	0.0406	-0.388	-0.62
in vitro model: dormancy (butyrate + nitrate, low O2), time point: constant (~7 days, model-specific)	0.0657	0.905	-0.281	-0.778	0.168
in vitro model: dormancy (butyrate + nitrate, low O2), time point: terminal (~4-5 doublings, model-specific)	0.067	0.988	-0.558	-0.863	-0.267
in vitro model: standard 7H9 glycerol, time point: constant = terminal	0.0822	0.974	-0.132	-0.648	-0.119
in vitro model: valerate, time point: constant (~7 days, model-specific)	0.112	0.94	-0.453	-1.82	-0.151
in vitro model: valerate, time point: terminal (~4-5 doublings, model-specific)	0.0649	0.956	0.0093	-0.0427	-0.0795

COc1nc2ccc(Br)cc2cc1[C@@H](c1ccccc1)[C@@](O)(CCN(C)C)c1cccc2ccccc12 [bedaquiline] + CC[C@@H](CO)NCCN[C@@H](CC)CO [ethambutol]
Settings	AUC25, [4]	Einf, [3]	FIC50, [2]	FIC90, [1]	GRinf, [5]
in vitro model: acidic pH 5.7, time point: constant (~7 days, model-specific)	0.133	0.831	0.111	–	-0.514
in vitro model: acidic pH 5.7, time point: terminal (~4-5 doublings, model-specific)	0.0618	0.961	0.595	-0.0708	-0.42
in vitro model: intracellular J774, time point: constant = terminal	–	1	–	-0.00203	-0.728

Settings	AUC25, [4]	Einf, [3]	FIC50, [2]	FIC90, [1]	GRinf, [5]
in vitro model: butyrate, time point: constant (~7 days, model-specific)	0.0683	0.948	0.277	–	-0.0865
in vitro model: butyrate, time point: terminal (~4-5 doublings, model-specific)	0.0577	0.978	0.142	-0.418	-0.0993
in vitro model: cholesterol 0.05 mM, time point: constant (~7 days, model-specific)	0.0646	0.736	0.507	–	-0.236
in vitro model: cholesterol 0.05 mM, time point: terminal (~4-5 doublings, model-specific)	0.0688	0.956	0.89	0.731	-0.404
in vitro model: cholesterol-high 0.2 mM, time point: constant (~7 days, model-specific)	0.026	0.994	0.819	–	-0.858
in vitro model: cholesterol-high 0.2 mM, time point: terminal (~4-5 doublings, model-specific)	0.0312	1	0.85	0.757	-0.687
in vitro model: dormancy (butyrate + nitrate, low O2), time point: constant (~7 days, model-specific)	0.139	0.866	1.04	–	0.338
in vitro model: dormancy (butyrate + nitrate, low O2), time point: terminal (~4-5 doublings, model-specific)	0.131	0.995	0.336	1.24	-0.154
in vitro model: standard 7H9 glycerol, time point: constant = terminal	0.0591	0.949	0.176	-0.108	-0.0657
in vitro model: valerate, time point: constant (~7 days, model-specific)	0.108	0.953	0.0258	–	-0.286
in vitro model: valerate, time point: terminal (~4-5 doublings, model-specific)	0.0819	0.979	0.247	-0.129	-0.0998
